In patent publication US11608332B2, “FGFR4 inhibitor and preparation method and use thereof” (Jiangsu Hansoh Pharmaceutical Group Co., Ltd., priority 2016, dated 2023):

Tests used:
Hep 3B cells = assay: Inhibition of Hep 3B cell proliferation (CellTiter-Glo); format: cell-based; conditions: Homo sapiens, Hep3B, 72 hours
Method in brief: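 Hep 3B cells seeded at 1-5×10^4 cells/ml and incubated 16-24 h, then exposed to serially diluted compound for 72 h at 37° C, 5% CO2. Viability read by CellTiter-Glo chemiluminescence; IC50 curve-fitted from inhibition rates.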

FGFR1 kinase = FGFR1 kinase (Homo sapiens (Human), UniProt P11362); assay: Enzymologic experiment of FGFR1 (TR-FRET); format: biochemical; conditions: TR-FRET kinase activity
FGFR1 kinase, sequence (P11362 22-822): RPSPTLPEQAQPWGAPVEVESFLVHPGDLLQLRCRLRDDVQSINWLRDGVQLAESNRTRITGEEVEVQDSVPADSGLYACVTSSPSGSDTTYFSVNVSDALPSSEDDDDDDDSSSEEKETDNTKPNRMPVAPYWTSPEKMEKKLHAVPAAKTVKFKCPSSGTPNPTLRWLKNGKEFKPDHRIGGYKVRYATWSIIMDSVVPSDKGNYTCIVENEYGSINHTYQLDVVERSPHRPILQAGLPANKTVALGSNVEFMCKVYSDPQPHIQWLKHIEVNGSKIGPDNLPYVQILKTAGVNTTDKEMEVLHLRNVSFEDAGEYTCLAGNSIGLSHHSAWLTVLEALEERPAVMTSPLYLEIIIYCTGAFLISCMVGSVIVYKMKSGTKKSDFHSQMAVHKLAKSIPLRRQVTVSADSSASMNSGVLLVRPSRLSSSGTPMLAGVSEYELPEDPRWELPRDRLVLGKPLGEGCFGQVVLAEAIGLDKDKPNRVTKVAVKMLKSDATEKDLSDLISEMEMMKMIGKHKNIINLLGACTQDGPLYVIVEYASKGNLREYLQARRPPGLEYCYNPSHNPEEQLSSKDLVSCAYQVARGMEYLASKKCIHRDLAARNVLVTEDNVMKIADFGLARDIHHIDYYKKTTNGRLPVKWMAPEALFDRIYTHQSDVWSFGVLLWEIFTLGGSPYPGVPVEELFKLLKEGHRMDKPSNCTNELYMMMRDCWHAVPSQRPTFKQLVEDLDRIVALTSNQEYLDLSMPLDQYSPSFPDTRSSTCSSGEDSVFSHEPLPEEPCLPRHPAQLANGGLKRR
Method in brief: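 Inhibition of FGFR1 (0.1–5 nM) was measured by TR-FRET with 5–50 nM peptide substrate and 10–200 μM ATP over 0.5–3 h at room temperature. The reaction was stopped with EDTA plus labeled antibody for 1 h, read at 665 nm, and IC50 was fitted from inhibition rates.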

FGFR4 kinase = FGFR4 kinase (Homo sapiens (Human), UniProt P22455); assay: Enzymologic experiment of FGFR4 (TR-FRET); format: biochemical; conditions: TR-FRET kinase activity
FGFR4 kinase, sequence (P22455 22-802): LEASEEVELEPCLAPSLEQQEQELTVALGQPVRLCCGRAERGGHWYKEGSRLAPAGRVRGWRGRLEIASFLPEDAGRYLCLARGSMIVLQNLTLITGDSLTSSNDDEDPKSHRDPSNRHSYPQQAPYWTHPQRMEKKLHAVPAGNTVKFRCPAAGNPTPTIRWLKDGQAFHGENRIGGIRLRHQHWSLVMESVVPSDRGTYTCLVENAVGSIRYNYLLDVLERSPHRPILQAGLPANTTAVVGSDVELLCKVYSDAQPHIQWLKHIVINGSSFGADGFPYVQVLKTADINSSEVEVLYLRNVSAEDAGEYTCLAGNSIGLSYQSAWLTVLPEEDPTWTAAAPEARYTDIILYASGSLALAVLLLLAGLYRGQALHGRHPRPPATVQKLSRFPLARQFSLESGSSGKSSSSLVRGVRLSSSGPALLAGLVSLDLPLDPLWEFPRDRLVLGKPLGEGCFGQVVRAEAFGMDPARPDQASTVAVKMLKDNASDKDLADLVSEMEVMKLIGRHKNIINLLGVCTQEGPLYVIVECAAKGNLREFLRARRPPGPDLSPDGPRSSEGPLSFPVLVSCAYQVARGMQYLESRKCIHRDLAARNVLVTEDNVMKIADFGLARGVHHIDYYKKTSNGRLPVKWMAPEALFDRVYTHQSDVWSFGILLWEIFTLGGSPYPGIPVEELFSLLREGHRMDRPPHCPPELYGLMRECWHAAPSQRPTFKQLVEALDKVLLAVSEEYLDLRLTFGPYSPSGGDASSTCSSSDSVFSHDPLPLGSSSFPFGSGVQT
Method: 1. Enzymologic Experiment of FGFR4
In this experiment, the inhibitory effect of the compounds on FGFR4 kinase activity was tested by a fluorescence resonance energy transfer (TR-FRET) method, and the half maximal inhibitory concentration (IC50) of the compounds on the FGFR4 kinase activity was determined.
2) 1˜5 μL of diluted solution in gradient of the compound were added.
4) The mixture was incubated for 0.5-3 hours at room temperature.
5) 10 μL of EDTA and a test solution comprising labeled antibody were added, and the plate was incubated for 1 hour at room temperature.
6) The fluorescence signal values of each plate were determined by a microplate reader at 665 nm.
7) The inhibition rates were calculated according to the fluorescence signal values.

[1] = Pharmacokinetic (PK) analysis in rats; format: in vivo, Sprague Dawley (SD) rats; conditions: SD rats, single intragastric administration, 5 mg/kg, plasma; for AUC(0-t) / AUC(0-inf) / half-life / MRT / Cmax: Sprague-Dawley, rat, po; for AUC(0-t): read-out: Area Under Curve AUC0-t; for AUC(0-inf): read-out: Area Under Curve AUC0-∞; for half-life: read-out: Half-Time t1/2 (converted); for MRT: read-out: Mean Residence Time MRT; for Cmax: read-out: Plasma Concentration Cmax
HuH-7 cells = assay: Inhibition of HuH-7 cell proliferation (CellTiter-Glo); format: cell-based; conditions: Homo sapiens, 72 hours
Method in brief: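 HuH-7 cells, pre-incubated 16–24 h (37 °C, 5% CO2), then exposed to serially diluted compound for 72 h. Viability by CellTiter-Glo luminescence; inhibition rates from signal, IC50 by curve fitting.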

SK-HEP-1 cells = assay: Inhibition of SK-HEP-1 cell proliferation (CellTiter-Glo); format: cell-based; conditions: Homo sapiens, SK-HEP1, 72 hours
Method in brief: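 SK-HEP-1 cells were seeded, grown 16–24 h, then exposed to serially diluted compound for 72 h at 37 °C, 5% CO2. Viability was read by CellTiter-Glo luminescence, and IC50 was fitted from inhibition rates.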

Question: With COC[C@@H](C)Oc1cc(NC(=O)N2CCCc3cc(CN(C)C(=O)[C@H]4CCCO4)c(C=O)nc32)ncc1C#N [Example 15, N-(5-Cyano-4-(((R)-1-methoxypropan-2-yl)oxy)pyridin-2-yl)-7-formyl-6-(((R)—N-methyltetrahydrofuran-2-carboxamido)methyl)-3,4-dihydro-1,8-naphthyridin-1(2H)-carboxamide] as the compound, how does the IC50 (Hep 3B cells) read?
Answer: 3.5 nM

Question: What about the IC50 (FGFR1 kinase) of the same compound?
Answer: > 10000 nM

Question: What about the IC50 (FGFR4 kinase) of the same compound?
Answer: 2.53 nM

Question: And the Peak Time tmax [1]?
Answer: 2 h

Question: And the AUC(0-t) [1]?
Answer: 7160 ng·h/mL

Question: And the AUC(0-inf) [1]?
Answer: 7970 ng·h/mL

Question: What about the half-life [1] of the same compound?
Answer: 1.5 h

Question: And the MRT [1]?
Answer: 3 h

Question: And the Cmax [1]?
Answer: 2690 ng/mL

Question: What about the IC50 (HuH-7 cells) of the same compound?
Answer: 8 nM

Question: What about the IC50 (SK-HEP-1 cells) of the same compound?
Answer: > 10000 nM

Question: With COCCNc1cc(NC(=O)N2CCCc3cc(CN(C)C(=O)[C@H]4CCCN4C)c(C=O)nc32)ncc1C#N [Example 9, (R)—N-(5-Cyano-4-((2-methoxyethyl)amino)pyridin-2-yl)-6-((N,1-dimethylpyrrolidin-2-carboxamido)methyl)-7-formyl-3,4-dihydro-1,8-naphthyridin-1(2H)-carboxamide] as the compound, how does the IC50 (Hep 3B cells) read?
Answer: 8.2 nM

Question: What about the IC50 (FGFR1 kinase) of the same compound?
Answer: > 10000 nM

Question: What about the IC50 (FGFR4 kinase) of the same compound?
Answer: 0.74 nM

Question: And the Peak Time tmax [1]?
Answer: 2 h

Question: What about the AUC(0-t) [1] of the same compound?
Answer: 4400 ng·h/mL

Question: What about the AUC(0-inf) [1] of the same compound?
Answer: 4800 ng·h/mL

Question: And the half-life [1]?
Answer: 1.3 h

Question: And the MRT [1]?
Answer: 3 h

Question: And the Cmax [1]?
Answer: 1700 ng/mL

Question: What about the IC50 (HuH-7 cells) of the same compound?
Answer: 31 nM

Question: What about the IC50 (SK-HEP-1 cells) of the same compound?
Answer: > 10000 nM

Question: For COCC(=O)N(C)Cc1cc2c(nc1C=O)N(C(=O)Nc1cc(N[C@@H]3COC[C@H]3OC)c(C#N)cn1)CCC2 (relative stereo) [Example 108, N-(5-Cyano-4-(((trans)-4-methoxytetrahydrofuran-3-yl)amino)pyridin-2-yl)-7-formyl-6-((2-methoxy-N-methylacetamido)methyl)-3,4-dihydro-1,8-naphthyridin-1 (2H)-carboxamide], which IC50 (Hep 3B cells) is on record?
Answer: 2.5 nM

Question: And the IC50 (FGFR1 kinase)?
Answer: > 10000 nM

Question: And the IC50 (FGFR4 kinase)?
Answer: 1.07 nM

Question: And the IC50 (HuH-7 cells)?
Answer: 10 nM

Question: What about the IC50 (SK-HEP-1 cells) of the same compound?
Answer: > 10000 nM

Question: Which IC50 (Hep 3B cells) does the source give for CN(Cc1cc2c(nc1C=O)N(C(=O)Nc1cc(N[C@H]3CCOC3)c(C#N)cn1)CCC2)C(=O)C1CCOCC1 [Example 99, (S)—N-(5-Cyano-4-((tetrahydrofuran-3-yl)amino)pyridin-2-yl)-7-formyl-6-((N-methyltetrahydro-2H-pyran-4-carboxamido)methyl)-3,4-dihydro-1,8-naphthyridin-1(2H)-carboxamide] here?
Answer: 5.5 nM

Question: And the IC50 (FGFR1 kinase)?
Answer: > 10000 nM

Question: And the IC50 (FGFR4 kinase)?
Answer: 1.95 nM

Question: What about the IC50 (HuH-7 cells) of the same compound?
Answer: 12 nM

Question: What about the IC50 (SK-HEP-1 cells) of the same compound?
Answer: > 10000 nM

Question: What does the source list for CO[C@H]1CCN(Cc2cc3c(nc2C=O)N(C(=O)Nc2cc(N[C@@H]4COC[C@H]4OC)c(C#N)cn2)CCC3)C1=O [Example 86]?
Answer: IC50 (Hep 3B cells): 3 nM; IC50 (FGFR1 kinase): > 10000 nM; IC50 (FGFR4 kinase): 1.34 nM; Peak Time tmax [1]: 2 h; AUC(0-t) [1]: 6830 ng·h/mL; AUC(0-inf) [1]: 6900 ng·h/mL; half-life [1]: 1 h; MRT [1]: 2.7 h; Cmax [1]: 2760 ng/mL; IC50 (HuH-7 cells): 13.1 nM; IC50 (SK-HEP-1 cells): > 10000 nM

Question: Which IC50 (Hep 3B cells) does the source give for COCCSc1cc(NC(=O)N2CCCc3cc(CN(C)C(=O)[C@H]4CCCO4)c(C=O)nc32)ncc1C#N [Example 16, (R)—N-(5-Cyano-4-((2-methoxyethyl)thio)pyridin-2-yl)-7-formyl-6-((N-methyltetrahydrofuran-2-carboxamido)methyl)-3,4-dihydro-1,8-naphthyridin-1(2H)-carboxamide] here?
Answer: 3.9 nM

Question: What about the IC50 (FGFR1 kinase) of the same compound?
Answer: > 10000 nM

Question: What about the IC50 (FGFR4 kinase) of the same compound?
Answer: 1.98 nM

Question: What about the Peak Time tmax [1] of the same compound?
Answer: 2 h

Question: And the AUC(0-t) [1]?
Answer: 8760 ng·h/mL

Question: What about the AUC(0-inf) [1] of the same compound?
Answer: 8370 ng·h/mL

Question: What about the half-life [1] of the same compound?
Answer: 1.4 h

Question: And the MRT [1]?
Answer: 2.5 h

Question: And the Cmax [1]?
Answer: 3140 ng/mL

Question: What about the IC50 (HuH-7 cells) of the same compound?
Answer: 10.7 nM

Question: What about the IC50 (SK-HEP-1 cells) of the same compound?
Answer: > 10000 nM

Question: For COC[C@@H](C)Oc1cc(NC(=O)N2CCCc3cc(CN4CC[C@H](OC)C4=O)c(C=O)nc32)ncc1C#N [Example 50, N-(5-Cyano-4-(((R)-1-methoxypropan-2-yl)oxy)pyridin-2-yl)-7-formyl-6-(((S)-3-methoxy-2-carbonylpyrrolidin-1-yl)methyl)-3,4-dihydro-1,8-naphthyridin-1(2H)-carboxamide], which IC50 (Hep 3B cells) is on record?
Answer: 2.3 nM

Question: And the IC50 (FGFR1 kinase)?
Answer: > 10000 nM

Question: And the IC50 (FGFR4 kinase)?
Answer: 1.2 nM

Question: What about the Peak Time tmax [1] of the same compound?
Answer: 2 h

Question: What about the AUC(0-t) [1] of the same compound?
Answer: 9220 ng·h/mL

Question: And the AUC(0-inf) [1]?
Answer: 9240 ng·h/mL

Question: And the half-life [1]?
Answer: 0.8 h

Question: What about the MRT [1] of the same compound?
Answer: 2.5 h

Question: What about the Cmax [1] of the same compound?
Answer: 2350 ng/mL

Question: And the IC50 (HuH-7 cells)?
Answer: 9.4 nM

Question: And the IC50 (SK-HEP-1 cells)?
Answer: > 10000 nM

Question: Which results are given for CO[C@H]1CCN(Cc2cc3c(nc2C=O)N(C(=O)Nc2cc(NC4COC4)c(C#N)cn2)CCC3)C1=O [Example 83, (S)—N-(5-Cyano-4-(oxetan-3-ylamino)pyridin-2-yl)-7-formyl-6-((3-methoxy-2-carbonylpyrrolidin-1-yl)methyl)-3,4-dihydro-1,8-naphthyridin-1(2H)-carboxamide]?
Answer: IC50 (Hep 3B cells): 4.7 nM; IC50 (FGFR1 kinase): > 10000 nM; IC50 (FGFR4 kinase): 1.32 nM; Peak Time tmax [1]: 2 h; AUC(0-t) [1]: 7520 ng·h/mL; AUC(0-inf) [1]: 7590 ng·h/mL; half-life [1]: 0.9 h; MRT [1]: 3 h; Cmax [1]: 2330 ng/mL; IC50 (HuH-7 cells): 5.5 nM; IC50 (SK-HEP-1 cells): > 10000 nM
